Laboratory results published in patent US9718810B2, “Solid state forms of a quinazoline derivative and its use as a BRAF inhibitor” (Ignyta, Inc., priority 2013, dated 2017).
Where two headings read alike, the source gives them in different places.

Assays:
[1] = Gravimetric vapor sorption (GVS); type: physicochemical; settings: for hygroscopicity: adsorption and desorption curves overlap; for XRPD after GVS analysis: form change after GVS cycles
Procedure: GVS experiments have been carried out using the DVS-HT instrument (Surface Measurement Systems, London, UK). This instrument measures the uptake and loss of vapor gravimetrically using a recording ultra-microbalance with a mass resolution of ±0.1 μg. The vapor partial pressure (±1.0%) around the sample is controlled by mixing saturated and dry carrier gas streams using electronic mass flow controllers. The desired temperature is maintained at ±0.1° C. The samples (1-10 mg) were placed into the DVSHT and DVS-1 instruments at the desired temperature. The sample was loaded and unloaded at 40% RH and 25° C. (typical room conditions). A moisture sorption isotherm was performed as outlined below (2 scans giving 1 complete cycle). The software uses a least squares minimization procedure together with a model of the mass relaxation, to predict an asymptotic value. The measured mass equilibration value must be within 2% of that predicted by the software before the next % RH value is selected. The minimum equilibration time was set to 1 hour and the maximum to 4 hours.

[2] = Kinetic solubility measurement in pure water; type: physicochemical; settings: for pH: pH of the aqueous solubility sample; for Aqueous solubility: pure water, ambient room temperature, 20 minutes, expressed as free base
Procedure: Typically 1-5 mg of samples were diluted to 10 mL with sample solvent (1:1 (v:v) Mobile phase A:Mobile phase B) and the assay concentrations were determined from an average of duplicate injections using the following HPLC method. The purity and impurity analyses are done using conventional HPLC.
The free base and the salts listed in the table below were added in excess (saturation) to water in a 2.0 mL glass vial. The samples were put on an end-to-end rotator (50 rpm) at ambient room temperature up to 20 minutes. After 20 minutes, a sampling was taken for HPLC analysis.

[3] = Solid-state stress stability at 40° C./75% RH; type: physicochemical; settings: for Area Purity / HPLC Assay / XRPD: 40° C./75% RH; for solid state stability: 40° C./75% relative humidity without desiccant
Procedure: Typically 1-5 mg of samples were diluted to 10 mL with sample solvent (1:1 (v:v) Mobile phase A:Mobile phase B) and the assay concentrations were determined from an average of duplicate injections using the following HPLC method. The purity and impurity analyses are done using conventional HPLC. Samples of Compound I free base and its salts (approximately 10 mg each) were stored at 40° C./75% RH in open glass vials (4 cm^3) over four weeks without desiccant. Stress stability studies were performed to get a timely impression of the influence of temperature and humidity on Form stability.

BRAF V600E [4] = target: T1, BRAF V600E (Homo sapiens, UniProt P15056, V600E); assay: BRAF V600E inhibition in intact cells; type: cell-based; settings: in vitro
BRAF V600E [5] = target: T1, BRAF V600E; assay: BRAF V600E inhibition in isolated systems; type: biochemical; settings: in vitro
[6] = Solubility of Form A0 in organic solvents at the boiling point; type: physicochemical; settings: for solubility: organic solvent or mixture, thermodynamic from solid, read-out: Solubility Estimate at The Boiling Point
Procedure: The following procedure was used to assess the solubility of the anhydrous free base of Compound I (Form A0) in a range of nine organic solvents listed in Table 3. Using 1.8 mL HPLC vials, approximately 10 mg of Form A0 was stirred at the boiling point in 200 μL of nine different solvents. […] The additions were stopped when the solid dissolved or when 1000 μL had been dispensed. […] Methyl t-butyl ether was chosen as an anti-solvent (<10 mg/mL).

[7] = Methyl-t-butyl Ether, 55.2 ° C.

T1 sequence (P15056 whole entry V600E): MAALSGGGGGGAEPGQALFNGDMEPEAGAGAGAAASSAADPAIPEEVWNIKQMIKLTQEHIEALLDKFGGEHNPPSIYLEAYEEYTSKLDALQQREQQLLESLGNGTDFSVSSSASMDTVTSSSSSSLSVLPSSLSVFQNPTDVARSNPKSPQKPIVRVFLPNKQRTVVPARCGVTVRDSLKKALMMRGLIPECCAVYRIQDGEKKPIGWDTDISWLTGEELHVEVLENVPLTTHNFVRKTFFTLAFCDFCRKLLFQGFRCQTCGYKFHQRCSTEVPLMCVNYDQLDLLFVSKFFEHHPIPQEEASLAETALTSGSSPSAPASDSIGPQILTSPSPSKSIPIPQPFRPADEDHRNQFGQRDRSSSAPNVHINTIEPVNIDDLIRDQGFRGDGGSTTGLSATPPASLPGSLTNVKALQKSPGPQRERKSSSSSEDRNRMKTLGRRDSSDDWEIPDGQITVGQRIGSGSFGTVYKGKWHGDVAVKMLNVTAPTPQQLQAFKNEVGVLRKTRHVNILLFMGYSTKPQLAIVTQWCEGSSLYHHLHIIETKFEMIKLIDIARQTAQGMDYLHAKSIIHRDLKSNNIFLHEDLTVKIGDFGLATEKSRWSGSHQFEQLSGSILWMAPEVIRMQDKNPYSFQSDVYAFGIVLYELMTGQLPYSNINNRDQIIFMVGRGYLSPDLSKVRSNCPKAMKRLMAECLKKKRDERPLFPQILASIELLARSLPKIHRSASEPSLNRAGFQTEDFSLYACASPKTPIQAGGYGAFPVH

Structure (SMILES) | amount of moisture adsorbed at 75% RH ([1]; 25° C.) | GVS: Percent increase in mass at 90% RH ([1]; 25° C.) | hygroscopicity [1] | XRPD after GVS analysis [1] | pH [2] | Aqueous solubility [2] | Area Purity ([3]; 0 days) | HPLC Assay ([3]; 0 days) | XRPD ([3]; 0 days) | Area Purity ([3]; 14 days) | HPLC Assay ([3]; 14 days) | XRPD ([3]; 14 days) | Area Purity ([3]; 28 days) | HPLC Assay ([3]; 28 days) | XRPD ([3]; 28 days) | solid state stability ([3]; 28 days) | also measured
COc1cc2ncnc(Oc3cccc(NC(=O)Nc4cc(C(C)(C)C(F)(F)F)on4)c3)c2cc1OC [Bromide A1] | less than 0.7% | 1.0% | not hygroscopic | No change | 6.6 | 0.1 mg/mL |  |  |  |  |  |  |  |  |  |  | GVS: Percent increase in mass at 90% RH ([1]; 25° C., listed as Bromide Form A1): approximately 1%; XRPD after GVS analysis ([1]; listed as Bromide Form A1): compares nicely to the pattern of the material before GVS
COc1cc2ncnc(Oc3cccc(NC(=O)Nc4cc(C(C)(C)C(F)(F)F)on4)c3)c2cc1OC.Cl [Chloride A1] |  | 1.7% |  | No change | 7.3 | 0.56 mg/mL | 99.5% | 99.9% | Form A1 | 97.6% | 98.7% | Form A1 | 96.4% | 100.4% | Form A1 | stable for 28 days | XRPD after GVS analysis ([1]; listed as Chloride Form A1): No form change occurred; Area Purity ([3]; 7 days): 98.7%; HPLC Assay ([3]; 7 days): 98.3%; XRPD ([3]; 7 days): Form A1; dissolution in pure water, ranking of salts ([2]; pure water (pH=7)): best salt for dissolution in pure water
COc1cc2ncnc(Oc3cccc(NC(=O)Nc4cc(C(C)(C)C(F)(F)F)on4)c3)c2cc1OC [Compound I, 1-[3-(6,7-dimethoxy-quinazolin-4-yloxy)-phenyl]-3-[5-(2,2,2-trifluoro-1,1-dimethyl-ethyl)-isoxazol-3-yl]-urea] |  |  |  |  |  |  |  |  |  |  |  |  |  |  |  |  | inhibits BRAF V600E (BRAF V600E [4]): low nanomolar concentrations; inhibits BRAF V600E (BRAF V600E [5]): low nanomolar concentrations
COc1cc2ncnc(Oc3cccc(NC(=O)Nc4cc(C(C)(C)C(F)(F)F)on4)c3)c2cc1OC [Form A0] |  | 1.3% |  | compares nicely to the pattern of the material before GVS | 7.4 |  | 98.3% | 100.0% | Form A0 | 98.5% | 100.5% | Form A0 | 98.2% | 102.4% | Form A0 | stable for 28 days | Solubility Estimate at The Boiling Point [6, 7]: <10 mg/mL; solubility ([6]; Acetone, 56.5 ° C.): > 50 mg/mL; solubility ([6]; Acetonitrile, 82.0 ° C.): < 20 mg/mL; solubility ([6]; Chloroform, 61.2 ° C.): > 50 mg/mL; solubility ([6]; Dichloromethane, 40.0 ° C.): > 20 mg/mL; solubility ([6]; Ethyl Acetate, 77.1 ° C.): < 30 mg/mL; solubility ([6]; Methanol, 64.7 ° C.): < 20 mg/mL; solubility [6, 7]: < 10 mg/mL; solubility ([6]; Tetrahydrofuran, 66.0 ° C.): > 50 mg/mL; solubility ([6]; Toluene, 110.6 ° C.): < 30 mg/mL; XRPD after GVS analysis ([1]; listed as A0): No change; moisture uptake ([1]; from 40 to about 90% RH): less than 1.3 % (w/w); Area Purity ([3]; 6 days): 98.5%; HPLC Assay ([3]; 6 days): 102.3%; XRPD ([3]; 6 days): Form A0; Aqueous solubility ([2]; listed as Free base A0): <0.01 mg/mL
COc1cc2ncnc(Oc3cccc(NC(=O)Nc4cc(C(C)(C)C(F)(F)F)on4)c3)c2cc1OC.O=C(O)CC(=O)O [Malonate A1] |  |  |  | No form change occurred | 6.6 | 0.07 mg/mL |  |  |  |  |  |  |  |  |  |  | total uptake of water ([1]; RH range of 0-90%, 25° C.): < 4%
COc1cc2ncnc(Oc3cccc(NC(=O)Nc4cc(C(C)(C)C(F)(F)F)on4)c3)c2cc1OC.O=P(O)(O)O [Phosphate A1] | less than 1.8% | 2.7% | not hygroscopic | No change | 6.8 | 0.09 mg/mL |  |  |  |  |  |  |  |  |  |  | GVS: Percent increase in mass at 90% RH ([1]; 25° C., listed as phosphate Form A1): approximately 2.7%; XRPD after GVS analysis ([1]; listed as phosphate Form A1): compares nicely to the pattern of the material before GVS
